Test [1] deals with T1, Histone-lysine N-methyltransferase EHMT1 (Homo sapiens) (UniProt Q9H9B1).
T1 sequence (whole entry): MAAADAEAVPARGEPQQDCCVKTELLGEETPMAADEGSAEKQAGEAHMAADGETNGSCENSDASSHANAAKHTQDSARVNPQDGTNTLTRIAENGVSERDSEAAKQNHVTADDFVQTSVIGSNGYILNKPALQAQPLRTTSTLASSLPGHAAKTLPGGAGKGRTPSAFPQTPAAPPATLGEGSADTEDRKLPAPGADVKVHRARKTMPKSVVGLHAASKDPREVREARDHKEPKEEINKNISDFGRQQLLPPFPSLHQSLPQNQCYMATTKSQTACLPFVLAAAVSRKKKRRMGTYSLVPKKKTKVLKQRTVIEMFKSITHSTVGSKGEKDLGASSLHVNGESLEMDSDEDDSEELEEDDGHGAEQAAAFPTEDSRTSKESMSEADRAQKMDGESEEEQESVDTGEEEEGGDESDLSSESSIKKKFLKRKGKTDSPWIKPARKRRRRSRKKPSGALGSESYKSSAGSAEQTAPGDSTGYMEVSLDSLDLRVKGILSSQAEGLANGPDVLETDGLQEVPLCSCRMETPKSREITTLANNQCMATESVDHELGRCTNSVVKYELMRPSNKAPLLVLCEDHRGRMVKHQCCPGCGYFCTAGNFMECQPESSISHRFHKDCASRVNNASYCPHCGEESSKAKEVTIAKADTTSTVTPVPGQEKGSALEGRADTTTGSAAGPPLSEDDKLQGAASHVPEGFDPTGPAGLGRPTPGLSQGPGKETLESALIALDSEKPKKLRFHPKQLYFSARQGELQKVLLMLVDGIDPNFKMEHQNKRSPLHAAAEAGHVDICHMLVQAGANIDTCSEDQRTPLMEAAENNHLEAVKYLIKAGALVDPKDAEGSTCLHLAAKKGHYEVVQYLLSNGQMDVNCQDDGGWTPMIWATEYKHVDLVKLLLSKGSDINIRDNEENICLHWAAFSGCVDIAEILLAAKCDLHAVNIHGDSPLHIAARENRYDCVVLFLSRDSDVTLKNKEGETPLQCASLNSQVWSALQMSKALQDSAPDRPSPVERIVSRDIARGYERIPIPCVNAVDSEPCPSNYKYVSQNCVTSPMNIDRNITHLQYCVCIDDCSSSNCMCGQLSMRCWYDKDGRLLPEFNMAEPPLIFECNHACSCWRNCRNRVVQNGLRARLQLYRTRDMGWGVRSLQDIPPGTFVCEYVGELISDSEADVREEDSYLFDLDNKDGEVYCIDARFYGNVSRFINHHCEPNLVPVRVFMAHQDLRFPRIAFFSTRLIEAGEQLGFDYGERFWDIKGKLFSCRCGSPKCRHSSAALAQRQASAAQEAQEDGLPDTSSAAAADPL
Briefly: Selectivity interaction (Methyltransferase screen (radiometric assays, panel of 8 PRMTs, 21 protein lysine methyltransferases, 3 DNA methyltransferases, and one RNA methyltransferase)) EUB0000271b EHMT1.

Test [2] concerns the target Myosin-IIIa (Homo sapiens) (UniProt Q8NEV4). The test can be described thus: Selectivity interaction (KinomeScan (DiscoverX)) EUB0000607a MYO3A. The note with it: at 10 µM.
Test [3] concerns the target Ribosomal protein S6 kinase alpha-3 (Homo sapiens, UniProt P51812). The test can be described thus: Selectivity interaction (ActivX KiNativ screen (ex vivo kinase selectivity in human PBMCs)) EUB0001619a RPS6KA3. It is filed as cell-based. The following applies: PBMC, at 1 µM.
For test [4], the target named is Phosphorylase b kinase gamma catalytic chain, skeletal muscle/heart isoform (Homo sapiens) (UniProt Q16816). The test can be described thus: Selectivity interaction (KinomeScan (DiscoverX)) EUB0001619a PHKG1. The note with it: at 1 µM.
Test [5] deals with Ribosomal protein S6 kinase alpha-6 (Homo sapiens, UniProt Q9UK32). The test can be described thus: Selectivity interaction (Kinase panel (Invitrogen)) EUB0000639a RPS6KA6. The following applies: at 200 nM.
For test [6], the target named is Mitogen-activated protein kinase 8 (Homo sapiens, UniProt P45983). Briefly: Selectivity interaction (Kinase panel (Invitrogen)) EUB0000639a MAPK8. The following applies: at 200 nM.
For test [7], the target named is T2, Tyrosine-protein kinase ZAP-70 (Homo sapiens, UniProt P43403).
T2 sequence (P43403 whole entry): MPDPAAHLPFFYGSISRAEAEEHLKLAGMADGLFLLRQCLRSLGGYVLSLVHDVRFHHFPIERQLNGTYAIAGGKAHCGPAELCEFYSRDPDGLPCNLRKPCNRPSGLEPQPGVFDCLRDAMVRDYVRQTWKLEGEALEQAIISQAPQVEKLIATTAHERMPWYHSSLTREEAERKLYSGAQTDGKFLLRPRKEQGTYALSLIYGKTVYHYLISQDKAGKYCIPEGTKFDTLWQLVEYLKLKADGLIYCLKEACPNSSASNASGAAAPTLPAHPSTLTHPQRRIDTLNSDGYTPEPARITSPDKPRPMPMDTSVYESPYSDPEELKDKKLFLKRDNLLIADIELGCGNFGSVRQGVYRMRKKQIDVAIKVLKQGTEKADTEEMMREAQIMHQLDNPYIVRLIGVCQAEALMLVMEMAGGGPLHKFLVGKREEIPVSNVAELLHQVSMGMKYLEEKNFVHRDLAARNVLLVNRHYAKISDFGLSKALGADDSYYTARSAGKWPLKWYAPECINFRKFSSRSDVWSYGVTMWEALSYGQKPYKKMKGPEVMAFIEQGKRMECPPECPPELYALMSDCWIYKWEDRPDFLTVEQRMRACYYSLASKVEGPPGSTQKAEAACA
Briefly: Selectivity interaction (Kinase panel (enzymatic assay)) EUB0000595a ZAP70.

In test [8] the target is Tyrosine-protein kinase JAK1 (Homo sapiens, UniProt P23458). Briefly: Selectivity interaction (KinomeScan (DiscoverX)) EUB0000595a JAK1. The note with it: at 10 µM.

The structures appear in SMILES notation. Bounds are passed on as bounds.

Sequence of Ribosomal protein S6 kinase alpha-3 (P51812 whole entry, canonical isoform): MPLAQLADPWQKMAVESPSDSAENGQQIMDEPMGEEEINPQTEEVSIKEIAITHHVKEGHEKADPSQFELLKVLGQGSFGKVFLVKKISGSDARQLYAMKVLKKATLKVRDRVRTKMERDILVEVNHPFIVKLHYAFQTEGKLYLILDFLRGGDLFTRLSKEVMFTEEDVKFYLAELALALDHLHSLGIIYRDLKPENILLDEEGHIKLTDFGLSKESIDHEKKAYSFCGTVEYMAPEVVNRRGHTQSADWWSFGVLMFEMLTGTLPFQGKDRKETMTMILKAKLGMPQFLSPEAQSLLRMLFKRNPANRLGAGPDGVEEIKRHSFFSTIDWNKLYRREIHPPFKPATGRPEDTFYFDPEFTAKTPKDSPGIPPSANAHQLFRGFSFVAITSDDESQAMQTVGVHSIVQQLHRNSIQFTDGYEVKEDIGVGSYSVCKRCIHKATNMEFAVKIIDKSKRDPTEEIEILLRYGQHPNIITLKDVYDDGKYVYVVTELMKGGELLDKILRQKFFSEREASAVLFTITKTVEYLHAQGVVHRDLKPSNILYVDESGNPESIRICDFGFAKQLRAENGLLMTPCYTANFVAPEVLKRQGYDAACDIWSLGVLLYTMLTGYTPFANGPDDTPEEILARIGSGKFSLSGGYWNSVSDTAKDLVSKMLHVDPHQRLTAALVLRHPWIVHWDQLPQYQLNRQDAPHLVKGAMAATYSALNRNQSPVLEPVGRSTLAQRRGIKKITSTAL
Sequence of Ribosomal protein S6 kinase alpha-6 (Q9UK32 whole entry): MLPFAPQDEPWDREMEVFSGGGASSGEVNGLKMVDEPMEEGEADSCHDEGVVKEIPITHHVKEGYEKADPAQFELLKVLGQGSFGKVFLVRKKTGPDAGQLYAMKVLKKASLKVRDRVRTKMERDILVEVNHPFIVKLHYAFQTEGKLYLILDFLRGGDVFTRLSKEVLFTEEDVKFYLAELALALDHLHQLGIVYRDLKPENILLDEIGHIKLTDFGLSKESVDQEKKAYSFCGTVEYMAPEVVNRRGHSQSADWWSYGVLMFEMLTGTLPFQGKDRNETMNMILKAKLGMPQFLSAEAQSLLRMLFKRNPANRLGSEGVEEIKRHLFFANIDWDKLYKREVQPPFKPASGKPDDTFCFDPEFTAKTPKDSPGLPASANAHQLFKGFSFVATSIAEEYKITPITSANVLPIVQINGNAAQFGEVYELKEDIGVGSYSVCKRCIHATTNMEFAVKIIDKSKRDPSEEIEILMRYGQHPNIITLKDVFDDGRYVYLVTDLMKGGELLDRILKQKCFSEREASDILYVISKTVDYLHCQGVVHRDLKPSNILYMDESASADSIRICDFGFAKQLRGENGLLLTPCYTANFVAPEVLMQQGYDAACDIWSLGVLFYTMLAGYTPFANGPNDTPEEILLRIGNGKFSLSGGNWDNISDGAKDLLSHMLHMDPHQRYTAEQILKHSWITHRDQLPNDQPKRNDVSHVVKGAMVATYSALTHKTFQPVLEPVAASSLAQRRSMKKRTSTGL
Sequence of Mitogen-activated protein kinase 8 (P45983 whole entry): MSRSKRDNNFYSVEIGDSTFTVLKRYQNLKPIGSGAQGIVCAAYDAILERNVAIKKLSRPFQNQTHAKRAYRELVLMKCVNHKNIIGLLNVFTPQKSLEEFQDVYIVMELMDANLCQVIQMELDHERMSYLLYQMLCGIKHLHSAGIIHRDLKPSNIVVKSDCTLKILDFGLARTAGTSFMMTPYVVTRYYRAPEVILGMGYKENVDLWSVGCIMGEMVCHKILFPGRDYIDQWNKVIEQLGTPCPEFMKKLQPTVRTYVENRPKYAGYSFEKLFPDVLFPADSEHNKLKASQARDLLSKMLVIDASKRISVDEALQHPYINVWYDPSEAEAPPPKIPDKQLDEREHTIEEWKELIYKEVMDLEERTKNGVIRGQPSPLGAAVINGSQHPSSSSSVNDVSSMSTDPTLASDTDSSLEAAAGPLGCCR
Sequence of Phosphorylase b kinase gamma catalytic chain, skeletal muscle/heart isoform (Homo sapiens) (Q16816 whole entry, looked up, canonical isoform): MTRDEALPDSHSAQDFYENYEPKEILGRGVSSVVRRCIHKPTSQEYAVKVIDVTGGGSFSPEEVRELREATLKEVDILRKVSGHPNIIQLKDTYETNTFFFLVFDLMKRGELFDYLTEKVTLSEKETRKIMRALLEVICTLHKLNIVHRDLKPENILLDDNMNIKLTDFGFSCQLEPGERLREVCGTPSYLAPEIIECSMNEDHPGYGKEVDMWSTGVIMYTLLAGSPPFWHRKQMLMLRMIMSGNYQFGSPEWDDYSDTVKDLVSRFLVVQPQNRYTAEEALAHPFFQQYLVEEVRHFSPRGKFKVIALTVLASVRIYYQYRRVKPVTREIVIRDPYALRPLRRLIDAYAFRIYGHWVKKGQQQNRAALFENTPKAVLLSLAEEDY
Sequence of Tyrosine-protein kinase JAK1 (P23458 whole entry): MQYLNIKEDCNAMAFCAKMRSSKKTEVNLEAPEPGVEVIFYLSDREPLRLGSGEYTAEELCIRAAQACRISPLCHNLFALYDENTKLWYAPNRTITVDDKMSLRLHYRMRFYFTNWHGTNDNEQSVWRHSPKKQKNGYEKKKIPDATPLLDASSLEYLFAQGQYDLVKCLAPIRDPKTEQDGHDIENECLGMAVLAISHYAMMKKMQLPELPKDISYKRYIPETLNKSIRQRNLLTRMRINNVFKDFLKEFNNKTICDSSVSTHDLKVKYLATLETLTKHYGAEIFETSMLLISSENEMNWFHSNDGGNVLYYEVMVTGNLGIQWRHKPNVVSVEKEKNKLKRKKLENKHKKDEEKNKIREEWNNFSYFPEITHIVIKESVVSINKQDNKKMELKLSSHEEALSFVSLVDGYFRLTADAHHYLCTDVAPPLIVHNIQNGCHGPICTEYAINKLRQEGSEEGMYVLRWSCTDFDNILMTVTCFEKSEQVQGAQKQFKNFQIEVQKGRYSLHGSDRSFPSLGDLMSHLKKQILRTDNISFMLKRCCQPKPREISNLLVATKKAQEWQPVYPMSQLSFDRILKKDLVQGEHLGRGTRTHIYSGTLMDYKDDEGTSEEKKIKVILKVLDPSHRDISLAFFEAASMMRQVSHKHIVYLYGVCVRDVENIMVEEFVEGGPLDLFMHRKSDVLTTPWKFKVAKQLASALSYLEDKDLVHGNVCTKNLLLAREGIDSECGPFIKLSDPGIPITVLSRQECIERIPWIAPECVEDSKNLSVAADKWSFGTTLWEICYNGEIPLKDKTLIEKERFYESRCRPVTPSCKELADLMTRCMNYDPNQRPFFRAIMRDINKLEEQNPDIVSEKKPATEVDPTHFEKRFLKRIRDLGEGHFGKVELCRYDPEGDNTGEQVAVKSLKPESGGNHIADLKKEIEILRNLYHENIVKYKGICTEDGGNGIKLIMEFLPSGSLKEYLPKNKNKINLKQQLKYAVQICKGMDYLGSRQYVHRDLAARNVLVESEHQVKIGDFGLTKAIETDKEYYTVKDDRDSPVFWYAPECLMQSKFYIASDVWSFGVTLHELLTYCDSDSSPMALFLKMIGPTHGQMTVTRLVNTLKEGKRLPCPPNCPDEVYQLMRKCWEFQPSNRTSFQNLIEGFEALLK
Sequence of Myosin-IIIa (Homo sapiens) (Q8NEV4 whole entry): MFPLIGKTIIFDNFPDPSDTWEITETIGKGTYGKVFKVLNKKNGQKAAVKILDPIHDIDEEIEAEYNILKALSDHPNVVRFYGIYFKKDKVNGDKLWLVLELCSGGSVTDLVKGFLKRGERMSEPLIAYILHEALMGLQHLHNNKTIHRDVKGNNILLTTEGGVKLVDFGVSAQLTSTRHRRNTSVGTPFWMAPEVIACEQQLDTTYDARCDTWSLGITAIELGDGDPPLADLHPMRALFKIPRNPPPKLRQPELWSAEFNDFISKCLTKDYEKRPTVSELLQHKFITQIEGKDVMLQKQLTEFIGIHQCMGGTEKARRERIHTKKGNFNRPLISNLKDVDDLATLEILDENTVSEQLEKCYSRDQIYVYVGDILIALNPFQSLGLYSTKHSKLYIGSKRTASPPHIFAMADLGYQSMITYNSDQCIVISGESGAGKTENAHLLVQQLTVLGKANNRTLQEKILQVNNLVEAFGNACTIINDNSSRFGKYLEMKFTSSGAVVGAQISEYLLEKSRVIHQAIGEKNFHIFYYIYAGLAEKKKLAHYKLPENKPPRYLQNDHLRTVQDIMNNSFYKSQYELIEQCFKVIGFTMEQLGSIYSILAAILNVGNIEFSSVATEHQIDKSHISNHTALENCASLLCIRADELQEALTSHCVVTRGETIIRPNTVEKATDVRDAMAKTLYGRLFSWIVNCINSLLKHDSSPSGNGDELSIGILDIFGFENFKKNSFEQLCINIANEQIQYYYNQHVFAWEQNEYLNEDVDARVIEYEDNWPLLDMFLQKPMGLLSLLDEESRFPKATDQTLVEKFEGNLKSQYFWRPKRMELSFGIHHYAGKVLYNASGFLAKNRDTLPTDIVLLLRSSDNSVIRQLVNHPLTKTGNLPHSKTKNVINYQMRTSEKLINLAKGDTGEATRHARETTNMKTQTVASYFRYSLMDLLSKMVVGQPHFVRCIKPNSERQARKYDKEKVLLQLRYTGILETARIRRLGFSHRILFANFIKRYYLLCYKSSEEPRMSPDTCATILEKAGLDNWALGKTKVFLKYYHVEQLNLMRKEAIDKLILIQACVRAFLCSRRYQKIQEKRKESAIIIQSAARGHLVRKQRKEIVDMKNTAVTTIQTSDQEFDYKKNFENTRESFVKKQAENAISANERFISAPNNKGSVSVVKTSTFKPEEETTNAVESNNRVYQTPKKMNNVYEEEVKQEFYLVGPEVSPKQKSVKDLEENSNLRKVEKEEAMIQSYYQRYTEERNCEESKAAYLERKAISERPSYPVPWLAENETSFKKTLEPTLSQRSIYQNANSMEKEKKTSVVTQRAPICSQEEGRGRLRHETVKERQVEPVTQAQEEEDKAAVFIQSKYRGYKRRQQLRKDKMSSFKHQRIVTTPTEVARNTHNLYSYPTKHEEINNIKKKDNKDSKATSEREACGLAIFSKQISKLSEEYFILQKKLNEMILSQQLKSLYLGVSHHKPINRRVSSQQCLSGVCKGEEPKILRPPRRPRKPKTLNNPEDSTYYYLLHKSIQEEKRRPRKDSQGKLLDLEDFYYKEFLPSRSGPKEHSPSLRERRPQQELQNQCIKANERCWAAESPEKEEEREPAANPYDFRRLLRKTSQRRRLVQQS

As to `Cc1cc(C)cc([C@@H]2c3cc(C)ccc3NC(=O)CN2C(=O)c2ccc(Br)s2)c1`, the % of activity in test [1] (at 1 µM) and in test [1] (at 10 µM) was 99% each time.
Turning to `CNC(=O)Nc1ccc(-c2nc(N3CC4CCC(C3)O4)c3cnn(C4CCC5(CC4)OCCO5)c3n2)cc1`, the % of control in test [2] was 52%.
In the case of `N#Cc1cccc(-c2c[nH]c3ncnc(N4CCOCC4)c23)c1`, the % of inhibition in test [3] was -3%. This compound came in with a % of control in test [4] of 81%.
Turning to `CC[C@@H]1[C@H](F)C(=O)N[C@@H]1COc1nccc2cc(C(N)=O)c(OC)cc12` [ZIMLOVISERTIB], the % of inhibition in test [5] is -1.29%; in test [6] it was 6.17%.
`COCC(=O)NC/C=C/c1ccc2ncnc(Nc3ccc(Oc4ccc(C)nc4)c(C)c3)c2c1` [CP-724714] had an IC50 in test [7] above 10 µM. Also, the % of control in test [8] was found to be 100%.

A word on the IC50: it is the concentration that inhibits the measured activity by half. Higher therefore signals a need for much substance.

The values above are taken from ChEMBL document CHEMBL5465560, “Selectivity Literature for EUbOPEN Chemogenomic Library” (2024).
